Experimental data as given in patent US20040224939A1, “Antibacterial agents” (priority 2003, published 2004).
In brackets after ≈: the same amount, converted by molar mass.

Experiments:
S. aureus UC-76 = test: Antibacterial assay (Test A), standard microtitration MIC, Gram positive; type: cell-based; conditions: Gram Positive Bacteria, strain UC-76; for MIC: Staphylococcus aureus, UC76, read-out: Minimum Inhibitory Concentrations, S. aureus UC-76
Protocol: (§1) Test A—Antibacterial Assays
(§2) The compounds of the present invention were tested against an assortment of Gram-negative and Gram-positive organisms using standard microtitration techniques (Cohen et. al., Antimicrob., 1985;28:766; Heifetz, et. al., Antimicrob., 1974;6:124).

E. faecalis MGH-2 = test: as above; type: cell-based; conditions: Gram Positive Bacteria, strain MGH-2; for MIC: Enterococcus faecalis, MGH2, read-out: Minimum Inhibitory Concentrations, E. faecalis MGH-2
Protocol: as §1, §2

S pyogenes C203 = test: as above; type: cell-based; conditions: Gram Positive Bacteria, strain C203; for MIC: read-out: Minimum Inhibitory Concentrations, S pyogenes C203
Protocol: as §1, §2

H. influenzae H13542 = test: Antibacterial assay (Test A), standard microtitration MIC, Gram negative; type: cell-based; conditions: Gram Negative Bacteria, strain H13542; for MIC: Haemophilus influenzae, read-out: Minimum Inhibitory Concentrations, H. influenzae H13542
Protocol: as §1, §2

E. coli Tol C = test: as above; type: cell-based; conditions: for MIC: Escherichia coli, read-out: Minimum Inhibitory Concentrations, E. coli Tol C
Protocol: as §1, §2

M. catarrhalis BC3534 = test: as above; type: cell-based; conditions: Gram Negative Bacteria, strain BC3534; for MIC: Moraxella catarrhalis, read-out: Minimum Inhibitory Concentrations, M. catarrhalis BC3534
Protocol: as §1, §2

[1] = test system: E. coli transcription and translation (TnT), E. coli S30 fraction; test: E. coli transcription and translation (TnT) assay, cell free, luciferase luminescence;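 note: printed under a heading of minimum inhibitory concentration in µg/mL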; type: biochemical; conditions: cell free E. coli S30, firefly luciferase plasmid pBESTluc, 20 minutes at room temperature

`CC(=O)NC[C@H]1CN(c2ccc3c(c2)C=CCCC3)C(=O)O1` gave an MIC (S. aureus UC-76) of 4 µg/mL (≈ 13.3 µM), an MIC (E. faecalis MGH-2) of 4 µg/mL (≈ 13.3 µM) and an MIC (S pyogenes C203) of 2 µg/mL (≈ 6.66 µM). The MIC (H. influenzae H13542) was > 64 µg/mL, the MIC (E. coli Tol C) was > 64 µg/mL and the MIC (M. catarrhalis BC3534) was 32 µg/mL (≈ 107 µM).
`CC(=O)NC[C@H]1CN(c2ccc3c(c2)CCN(C(=O)Cc2cccs2)CC3)C(=O)O1` gave an MIC (S. aureus UC-76) of 0.25 µg/mL (≈ 0.585 µM), an MIC (E. faecalis MGH-2) of 0.25 µg/mL (≈ 0.585 µM) and an MIC (S pyogenes C203) of 0.125 µg/mL (≈ 0.292 µM). For the same compound, the “Inhibitory concentration in E. coli cell-free transcription/translation assay” value [1] was 2.3 µg/mL, the MIC (H. influenzae H13542) was > 64 µg/mL and the MIC (E. coli Tol C) was > 64 µg/mL. It also gave an MIC (M. catarrhalis BC3534) of 16 µg/mL (≈ 37.4 µM).
`CC(=O)NC[C@H]1CN(c2ccc3c(c2)CCCC(Cc2ccsc2)C3=O)C(=O)O1` (stereo partly shown) showed an MIC (S. aureus UC-76) of 0.25 µg/mL (≈ 0.606 µM), an MIC (E. faecalis MGH-2) of 0.5 µg/mL (≈ 1.21 µM) and an MIC (S pyogenes C203) of 0.25 µg/mL (≈ 0.606 µM). For the same compound, the “Inhibitory concentration in E. coli cell-free transcription/translation assay” value [1] was 0.84 µg/mL, the MIC (H. influenzae H13542) was 2 µg/mL (≈ 4.85 µM) and the MIC (E. coli Tol C) was > 64 µg/mL. The MIC (M. catarrhalis BC3534) was 1 µg/mL (≈ 2.42 µM).
Compound `COC(=O)C1CCCc2cc(N3C[C@H](CNC(C)=O)OC3=O)ccc2C1=O` (stereo partly shown) has an MIC (S. aureus UC-76) of 4 µg/mL (≈ 10.7 µM), an MIC (E. faecalis MGH-2) of 2 µg/mL (≈ 5.34 µM) and an MIC (S pyogenes C203) of 4 µg/mL (≈ 10.7 µM). For the same compound, the “Inhibitory concentration in E. coli cell-free transcription/translation assay” value [1] was 4.7 µg/mL, the MIC (H. influenzae H13542) was 32 µg/mL (≈ 85.5 µM) and the MIC (E. coli Tol C) was > 64 µg/mL. It also gave an MIC (M. catarrhalis BC3534) of 16 µg/mL (≈ 42.7 µM).
In the case of `CC(=O)NCC1CN(c2ccc3c(c2)CCCCC3=O)C(=O)O1` (stereo not shown) [Example 2, N-[2-Oxo-3-(5-oxo-6,7,8,9-tetrahydro-5H-benzocyclohepten-2-yl)-oxazolidin-5-ylmethyl]-acetamide], the MIC (S. aureus UC-76) is reported as > 64 µg/mL, the MIC (E. faecalis MGH-2) is reported as > 64 µg/mL and the MIC (S pyogenes C203) is reported as > 64 µg/mL. The “Inhibitory concentration in E. coli cell-free transcription/translation assay” value [1] was 3.9 µg/mL, the MIC (H. influenzae H13542) was 8 µg/mL (≈ 25.3 µM) and the MIC (E. coli Tol C) was > 64 µg/mL. The MIC (M. catarrhalis BC3534) was 4 µg/mL (≈ 12.6 µM).
`CC(=O)NCC1CN(c2ccc3c(c2)CCC(=O)CC3)C(=O)O1` (stereo not shown) [Example 4, N-[2-Oxo-3-(7-oxo-6,7,8,9-tetrahydro-5H-benzocyclohepten-2-yl)-oxazolidin-5-ylmethyl]-acetamide] showed an MIC (S. aureus UC-76) of 4 µg/mL (≈ 12.6 µM), an MIC (E. faecalis MGH-2) of 8 µg/mL (≈ 25.3 µM) and an MIC (S pyogenes C203) of 4 µg/mL (≈ 12.6 µM). The “Inhibitory concentration in E. coli cell-free transcription/translation assay” value [1] was 8.2 µg/mL, the MIC (H. influenzae H13542) was 64 µg/mL (≈ 202 µM) and the MIC (E. coli Tol C) was > 64 µg/mL. For the same compound, the MIC (M. catarrhalis BC3534) was 32 µg/mL (≈ 101 µM).
`CC(=O)NCC1CN(c2ccc3c(c2)CC(=O)CCC3)C(=O)O1` (stereo not shown) [Example 5, N-[2-Oxo-3-(8-oxo-6,7,8,9-tetrahydro-5H-benzocyclohepten-2-yl)-oxazolidin-5-ylmethyl]-acetamide] showed an MIC (S. aureus UC-76) of 8 µg/mL (≈ 25.3 µM), an MIC (E. faecalis MGH-2) of 16 µg/mL (≈ 50.6 µM) and an MIC (S pyogenes C203) of 8 µg/mL (≈ 25.3 µM). For the same compound, the “Inhibitory concentration in E. coli cell-free transcription/translation assay” value [1] was 2.3 µg/mL, the MIC (H. influenzae H13542) was 64 µg/mL (≈ 202 µM) and the MIC (E. coli Tol C) was > 64 µg/mL. The MIC (M. catarrhalis BC3534) was 64 µg/mL (≈ 202 µM).
In the case of `CC(=O)NCC1CN(c2ccc3c(c2)C=CCCC3)C(=O)O1` (stereo not shown) [Example 6, N-[3-(6,7-dihydro-5H-benzocyclohepten-2-yl)-2-oxo-oxazolidin-5-ylmethyl]acetamide], the MIC (S. aureus UC-76) is reported as 4 µg/mL (≈ 13.3 µM), the MIC (E. faecalis MGH-2) is reported as 4 µg/mL (≈ 13.3 µM) and the MIC (S pyogenes C203) is reported as 2 µg/mL (≈ 6.66 µM). The “Inhibitory concentration in E. coli cell-free transcription/translation assay” value [1] was 15 µg/mL, the MIC (H. influenzae H13542) was > 64 µg/mL and the MIC (E. coli Tol C) was > 64 µg/mL. The MIC (M. catarrhalis BC3534) was 32 µg/mL (≈ 107 µM).
Work on `CC(=O)NCC1CN(c2ccc3c(c2)CCCC(=O)C3)C(=O)O1` (stereo not shown) [Example 7, N-[2-Oxo-3-(6-oxo-6,7,8,9-tetrahydro-5H-benzocyclohepten-2-yl)-oxazolidin-5-ylmethyl]-acetamide] yielded an MIC (S. aureus UC-76) of 4 µg/mL (≈ 12.6 µM), an MIC (E. faecalis MGH-2) of 4 µg/mL (≈ 12.6 µM) and an MIC (S pyogenes C203) of 2 µg/mL (≈ 6.32 µM). The “Inhibitory concentration in E. coli cell-free transcription/translation assay” value [1] was 12 µg/mL, the MIC (H. influenzae H13542) was 32 µg/mL (≈ 101 µM) and the MIC (E. coli Tol C) was > 64 µg/mL. The MIC (M. catarrhalis BC3534) was 32 µg/mL (≈ 101 µM).
In the case of `CC(=O)NCC1CN(c2ccc3c(c2)OCCCC3=O)C(=O)O1` (stereo not shown) [Example 12, N-[2-Oxo-3-(5-oxo-2,3,4,5-tetrahydro-benzo[b]oxepin-8-yl)-oxazolidin-5-ylmethyl]-acetamide], the MIC (S. aureus UC-76) is reported as 8 µg/mL (≈ 25.1 µM), the MIC (E. faecalis MGH-2) is reported as 4 µg/mL (≈ 12.6 µM) and the MIC (S pyogenes C203) is reported as 2 µg/mL (≈ 6.28 µM). The “Inhibitory concentration in E. coli cell-free transcription/translation assay” value [1] was 1.1 µg/mL, the MIC (H. influenzae H13542) was 32 µg/mL (≈ 101 µM) and the MIC (E. coli Tol C) was > 64 µg/mL. For the same compound, the MIC (M. catarrhalis BC3534) was 16 µg/mL (≈ 50.3 µM).
For `CC(=O)NCC1CN(c2ccc3c(c2)CCCCN3)C(=O)O1` (stereo not shown) [Example 14, N-[2-Oxo-3-(2,3,4,5-tetrahydro-1H-benzo[b]azepin-7-yl)-oxazolidin-5-ylmethyl]-acetamide], the MIC (S. aureus UC-76) was 32 µg/mL (≈ 105 µM), the MIC (E. faecalis MGH-2) was 64 µg/mL (≈ 211 µM) and the MIC (S pyogenes C203) was 16 µg/mL (≈ 52.7 µM). The MIC (H. influenzae H13542) was 64 µg/mL (≈ 211 µM), the MIC (E. coli Tol C) was > 64 µg/mL and the MIC (M. catarrhalis BC3534) was > 64 µg/mL.
`CC(=O)NC[C@H]1CN(c2ccc3c(c2)CCCCC3)C(=O)O1` [drawing 69] was tested, and the MIC (S. aureus UC-76) was 2 µg/mL (≈ 6.61 µM), the MIC (E. faecalis MGH-2) was 4 µg/mL (≈ 13.2 µM) and the MIC (S pyogenes C203) was 2 µg/mL (≈ 6.61 µM). The MIC (H. influenzae H13542) was > 64 µg/mL, the MIC (E. coli Tol C) was > 64 µg/mL and the MIC (M. catarrhalis BC3534) was 16 µg/mL (≈ 52.9 µM).
In the case of `CC(=O)NC[C@H]1CN(c2ccc3c(c2)CCCCC3)C(=O)O1` [drawing 70], the “Inhibitory concentration in E. coli cell-free transcription/translation assay” value [1] is reported as 6.6 µg/mL.
For `CC(=O)NC[C@H]1CN(c2ccc3c(c2)CCC/C(=C\c2ccc(F)cc2)C3=O)C(=O)O1` [drawing 72], the “Inhibitory concentration in E. coli cell-free transcription/translation assay” value [1] was 1.4 µg/mL, the MIC (H. influenzae H13542) was 2 µg/mL (≈ 4.73 µM) and the MIC (E. coli Tol C) was > 64 µg/mL. It also gave an MIC (M. catarrhalis BC3534) of 1 µg/mL (≈ 2.37 µM).
`CC(=O)NC[C@H]1CN(c2ccc3c(c2)CCC/C(=C\c2ccncc2)C3=O)C(=O)O1` [drawing 72] was tested, and the MIC (S. aureus UC-76) was 1 µg/mL (≈ 2.47 µM), the MIC (E. faecalis MGH-2) was 1 µg/mL (≈ 2.47 µM) and the MIC (S pyogenes C203) was 1 µg/mL (≈ 2.47 µM).
Compound `CC(=O)NC[C@H]1CN(c2ccc3c(c2)CCC/C(=C\c2ccc(F)cc2)C3=O)C(=O)O1` [drawing 73] has an MIC (S. aureus UC-76) of 0.5 µg/mL (≈ 1.18 µM), an MIC (E. faecalis MGH-2) of 0.5 µg/mL (≈ 1.18 µM) and an MIC (S pyogenes C203) of 0.5 µg/mL (≈ 1.18 µM).
`CC(=O)NC[C@H]1CN(c2ccc3c(c2)CCC/C(=C\c2ccncc2)C3=O)C(=O)O1` [drawing 73] was tested, and the “Inhibitory concentration in E. coli cell-free transcription/translation assay” value [1] was 2.7 µg/mL, the MIC (H. influenzae H13542) was 16 µg/mL (≈ 39.5 µM) and the MIC (E. coli Tol C) was > 64 µg/mL. For the same compound, the MIC (M. catarrhalis BC3534) was 8 µg/mL (≈ 19.7 µM).
For “N-[2-Oxo-3-(2,3,4,5-tetrahydro-1H-benzo [c] azepin-7-yl)-oxazolidin-5-ylmethyl]-acetamide and N-[2-Oxo-3-(2,3,4,5-tetrahydro-1H-benzo[d]azepin-7-yl)-oxazolidin-5-ylmethyl]-acetamide [Example 15]”, the “Minimum Inhibitory Concentrations, S. aureus UC-76” value (S. aureus UC-76) was 64 µg/mL, the “Minimum Inhibitory Concentrations, E. faecalis MGH-2” value (E. faecalis MGH-2) was 64 µg/mL and the “Minimum Inhibitory Concentrations, S pyogenes C203” value (S pyogenes C203) was 64 µg/mL. For the same compound, the “Inhibitory concentration in E. coli cell-free transcription/translation assay” value [1] was 11 µg/mL, the “Minimum Inhibitory Concentrations, H. influenzae H13542” value (H. influenzae H13542) was >64 µg/mL and the “Minimum Inhibitory Concentrations, E. coli Tol C” value (E. coli Tol C; Gram Negative Bacteria, strain Tol C) was >64 µg/mL. For the same compound, the “Minimum Inhibitory Concentrations, M. catarrhalis BC3534” value (M. catarrhalis BC3534) was >64 µg/mL.
